In article PMC9104108, “Purification and Identification of Novel Myeloperoxidase Inhibitory Antioxidant Peptides from Tuna (Thunnas albacares) Protein Hydrolysates” (Molecules, 2022):
Where no end group is shown, it is not given here.

How the values were obtained:
MPO [1] = target: T1, MPO (Homo sapiens, UniProt P05164); test: MPO inhibitor screening assay kit, peroxidation assay; format: biochemical; conditions: ADHP substrate, synthesized peptides
T1 construct: purchased Abnova, Taiwan
T1 sequence (P05164 49-745): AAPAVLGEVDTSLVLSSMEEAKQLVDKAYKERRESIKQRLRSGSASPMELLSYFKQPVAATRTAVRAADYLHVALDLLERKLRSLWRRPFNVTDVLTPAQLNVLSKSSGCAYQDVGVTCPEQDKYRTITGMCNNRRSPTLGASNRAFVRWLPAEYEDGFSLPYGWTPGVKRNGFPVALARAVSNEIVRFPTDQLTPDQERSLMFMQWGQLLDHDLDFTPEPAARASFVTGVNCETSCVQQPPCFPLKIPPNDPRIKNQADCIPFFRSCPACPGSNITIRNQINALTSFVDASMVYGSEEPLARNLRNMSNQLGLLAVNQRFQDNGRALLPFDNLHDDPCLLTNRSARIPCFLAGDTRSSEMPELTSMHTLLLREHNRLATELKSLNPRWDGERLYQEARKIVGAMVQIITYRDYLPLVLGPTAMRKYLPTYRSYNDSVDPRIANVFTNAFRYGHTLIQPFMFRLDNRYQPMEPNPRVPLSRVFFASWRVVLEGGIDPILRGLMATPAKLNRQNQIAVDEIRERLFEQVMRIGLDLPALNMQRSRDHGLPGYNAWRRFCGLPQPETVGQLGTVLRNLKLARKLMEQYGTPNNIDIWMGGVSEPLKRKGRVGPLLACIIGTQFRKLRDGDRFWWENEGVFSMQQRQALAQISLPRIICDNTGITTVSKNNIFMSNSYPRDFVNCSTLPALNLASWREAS
Excerpt: (§1) The inhibitory effect of peptides on MPO was estimated using an MPO inhibitor screening assay kit (Abnova, Taiwan), which was used to assess in both the peroxidation and chlorination activities of MPO. Peroxidation assay utilizes the peroxidase component of MPO. During the reaction, hydrogen peroxide reacts with 10-acetyl-3,7-dihydroxyphenoxazine (ADHP) to yield resorufin, a highly fluorescent compound. The chlorination assay utilizes non-fluorescent 2-[6-(4-aminophenoxy)-3-oxo-3H-xanthen-9-yl]-benzoic acid (APF), which is selectively cleaved by hypochlorite to produce fluorescein. The 4-aminobenzhydrazide was used as positive control. The MPO inhibitory activity was determined according to the kit instructions.

MPO [2] = target: T1, MPO; test: MPO inhibitor screening assay kit, chlorination assay; format: biochemical; conditions: APF substrate, synthesized peptides
Excerpt: as §1

Row | IC50 (MPO [1]) [µM] | IC50 (MPO [2]) [µM] | Substance
1 | > 500 | > 500 | GDAFDKA [GDAFDKA]
2 | > 500 | > 500 | DASHGHSG
3 | > 500 | 122 | GELALKD [GELALKD]
4 | 40.3 | 108 | KFCSGHA [KFCSGHA]
5 | > 500 | 296 | DVSDLDAD
6 | 17.9 | 32.3 | ACGSDGK [ACGSDGK]
